Data as given in PMC6467771 (Journal of medicinal chemistry, 2019).

Molecular target: FmlH (Escherichia coli, UniProt Q1RBS0)
Type: binding, Escherichia coli (UPEC, CFT073)
Settings: for fold more potent than the matched pair Gal/GalNAc derivative: 50 vs 51, 30 vs 29; for IC50: IC50, ELISA, FmlH binding to desialylated bovine submaxillary mucin, average of four or more replicates

O=C(O)c1cc(-c2ccccc2O[C@@H]2O[C@H](CO)[C@H](O)[C@H](O)[C@H]2O)cc([N+](=O)[O-])c1 [Compound 30, 5-Nitro-2’-(((2S,3R,4S,5R,6R)-3,4,5-trihydroxy-6-(hydroxymethyl)-tetrahydro-2H-pyran-2-yl)oxy)-[1,1’-biphenyl]-3-carboxylic Acid]
fold more potent than the matched pair Gal/GalNAc derivative (ELISA IC50 ratio): 6 fold | IC50: 280 nM

COc1ccc(C(=O)O)cc1-c1ccccc1O[C@@H]1O[C@H](CO)[C@H](O)[C@H](O)[C@H]1NC(C)=O [Compound 31, 2’-(((2S,3R,4R,5R,6R)-3-Acetamido-4,5-dihydroxy-6 (hydroxymethyl)tetrahydro-2H-pyran-2-yl)oxy)-6-methoxy-[1,1’- biphenyl]-3-carboxylic Acid]
fold drop in activity relative to 1 (ELISA IC50 ratio): 6 fold | IC50: 3900 nM

CC(=O)N[C@H]1[C@H](Oc2ccccc2-c2cccc([N+](=O)[O-])c2)O[C@H](CO)[C@H](O)[C@@H]1O [Compound 38, N-((2S,3R,4R,5R,6R)-4,5-Dihydroxy-6-(hydroxymethyl)-2-((3’-nitro-[1,1’-biphenyl]-2-yl)oxy)tetrahydro-2H-pyran-3-yl)acetamide]
IC50: 2700 nM

COc1cccc(O[C@@H]2O[C@H](CO)[C@H](O)[C@H](O)[C@H]2NC(C)=O)c1-c1cccc(NS(C)(=O)=O)c1 [Compound 83, N-((2S,3S,4R,5R)-4,5-Dihydroxy-6-(hydroxymethyl)-2-((6-me-thoxy-3 ‘-(methylsulfonamido)-[1,1 ‘-biphenyl]-2-yl)oxy)tetrahydro-2H-pyran-3-yl)acetamide]
IC50: 92 nM

CC(=O)NC1[C@H](Oc2cccc(C)c2-c2cccc(NS(=O)(=O)N(C)C)c2)O[C@H](CO)[C@H](O)[C@@H]1O (stereo in doubt) [Compound 87, N-((2S,3S,4R,5R)-2-((3’-((N,N-Dimethylsulfamoyl)amino)-6-methyl-[1,1’-biphenyl]-2-yl)oxy)-4,5-dihydroxy-6-(hydroxymethyl)-tetrahydro-2H-pyran-3-yl)acetamide]
IC50: 77 nM

CC(=O)N[C@H]1[C@H](Oc2ccccc2-c2cccc(F)c2)O[C@H](CO)[C@H](O)[C@@H]1O [Compound 36, N-((2S,3R,4R,5R,6R)-2-((3 ‘-Fluoro-[1,1’-biphenyl]-2-yl)oxy)-4,5-dihydroxy-6-(hydroxymethyl)tetrahydro-2H-pyran-3-yl)acetamide]
IC50: 1500 nM

CC(=O)N[C@H]1[C@H](Oc2ccccc2-c2cccc(C(=O)N(C)C)c2)O[C@H](CO)[C@H](O)[C@@H]1O [Compound 46, 2’-(((2S,3R,4R,5R,6R)-3-Acetamido-4,5-dihydroxy-6-(hydroxymethyl)tetrahydro-2H-pyran-2-yl)oxy)-N,N-dimethyl-[1,1’- biphenyl]-3-carboxamide]
IC50: 3100 nM

CS(=O)(=O)Nc1cccc(-c2ccccc2O[C@@H]2O[C@H](CO)[C@H](O)[C@H](O)[C@H]2O)c1 [Compound 51, N-(2’-(((2S,3R,4S,5R,6R)-3,4,5-Trihydroxy-6-(hydroxymethyl)-tetrahydro-2H-pyran-2-yl)oxy)-[1,1’-biphenyl]-3-yl)-methanesulfonamide]
IC50: 1600 nM

CC(=O)Nc1cccc(-c2ccccc2O[C@@H]2O[C@H](CO)[C@H](O)[C@H](O)[C@H]2NC(C)=O)c1 [Compound 43, N-(2’-(((2S,3R,4R,5R,6R)-3-Acetamido-4,5-dihydroxy-6-(hydroxymethyl)tetrahydro-2H-pyran-2-yl)oxy)-[1,1’-biphenyl]-3-yl)acetamide]
IC50: 310 nM

CC(=O)N[C@H]1[C@H](Oc2ccccc2-c2cccc(NS(=O)(=O)C(F)(F)F)c2)O[C@H](CO)[C@H](O)[C@@H]1O [Compound 49, N-((2S,3R,4R,5R,6R)-4,5-Dihydroxy-6-(hydroxymethyl)-2-((3’-((trifluoromethyl)sulfonamido)-[1,1’-biphenyl]-2-yl)oxy)-tetrahydro-2H-pyran-3-yl)acetamide]
IC50: 1100 nM

COc1ccc(O)cc1-c1ccccc1O[C@@H]1O[C@H](CO)[C@H](O)[C@H](O)[C@H]1NC(C)=O [Compound 34, N-((2S,3R,4R,5R,6R)-4,5-Dihydroxy-2-((5’-hydroxy-2’ methoxy-[1,1’-biphenyl]-2-yl)oxy)-6-(hydroxymethyl)tetrahydro-2H-pyran-3-yl)acetamide]
IC50: 510 nM

CC(=O)N[C@H]1[C@H](Oc2cccc([N+](=O)[O-])c2-c2cccc(NS(C)(=O)=O)c2)O[C@H](CO)[C@H](O)[C@@H]1O [Compound 78, N-((2S,3R,4R,5R,6R)-4,5-Dihydroxy-6-(hydroxymethyl)-2-((3’- (methylsulfonamido)-6-nitro-[1,1’-biphenyl]-2-yl)oxy)tetrahydro-2H-pyran-3-yl)acetamide]
IC50: 58 nM

CC(=O)N[C@H]1[C@H](Oc2cccc(C#N)c2-c2cccc(NS(C)(=O)=O)c2)O[C@H](CO)[C@H](O)[C@@H]1O [Compound 79, N-((2S,3S,4R,5R)-2-((6-Cyano-3’-(methylsulfonamido)-[1,1’-bi-phenyl]-2-yl)oxy)-4,5-dihydroxy-6-(hydroxymethyl)tetra’hydro-2H-pyran-3-yl)acetamide]
IC50: 44 nM

CC(=O)N[C@H]1[C@H](Oc2ccccc2-c2cccc(OS(C)(=O)=O)c2)O[C@H](CO)[C@H](O)[C@@H]1O [Compound 33, 2’-(((2S,3R,4R,5R,6R)-3-Acetamido-4,5-dihydroxy-6-(hydroxymethyl)tetrahydro-2H-pyran-2-yl)oxy)-[1,1’-biphenyl]-3-yl methanesulfonate]
IC50: 890 nM

CC(=O)NC1[C@H](Oc2ccccc2-c2cccc(NC(=O)C(F)(F)F)c2)O[C@H](CO)[C@H](O)[C@@H]1O (stereo in doubt) [Compound 44, N-(2’-(((2S,3S,4R,5R)-3-Acetamido-4,5-dihydroxy-6 (hydroxymethyl)tetrahydro-2H-pyran-2-yl)oxy)-[1,1’-biphenyl]-3-yl)-2,2,2-trifluoroacetamide]
IC50: 370 nM

COc1ccc(OS(C)(=O)=O)cc1-c1ccccc1O[C@@H]1O[C@H](CO)[C@H](O)[C@H](O)[C@H]1NC(C)=O [Compound 35, 2’-(((2S,3R,4R,5R,6R)-3-Acetamido-4,5-dihydroxy-6 (hydroxymethyl)tetrahydro-2H-pyran-2-yl)oxy)-6-methoxy-[1,1’-biphenyl]-3-yl Methanesulfonate]
IC50: 3700 nM

CC(=O)N[C@H]1[C@H](Oc2ccccc2-c2cccc(CO)c2)O[C@H](CO)[C@H](O)[C@@H]1O [Compound 42, N-((2S,3R,4R/5R/6R)-4/5-Dihydroxy-6-(hydroxymethyl)-2-((3’-(hy-droxymethyl)-[1,1’-biphenyl]-2-yl)oxy)tetrahydro-2H-pyran-3-yl)-acetamide]
IC50: 630 nM

CC(=O)N[C@H]1[C@H](Oc2ccccc2-c2cccc(C(F)(F)F)c2)O[C@H](CO)[C@H](O)[C@@H]1O [Compound 40, N-((2S,3R,4R/5R/6R)-4/5-Dihydroxy-6-(hydroxymethyl)-2-((3’-(tri-fluoromethyl)-[1,1’-biphenyl]-2-yl)oxy)tetrahydro-2H-pyran-3-yl) acetamide]
IC50: 1500 nM

CNC(=O)c1cccc(-c2ccccc2O[C@@H]2O[C@H](CO)[C@H](O)[C@H](O)[C@H]2NC(C)=O)c1 [Compound 47, 2’-(((2S,3R,4R,5R,6R)-3-Acetamido-4,5-dihydroxy-6-(hydroxymethyl)tetrahydro-2H-pyran-2-yl)oxy)-N-methyl-[1,1’-bi-phenyl]-3-carboxamide]
IC50: 3400 nM

CC(=O)N[C@H]1[C@H](Oc2ccccc2-c2cccc(C(N)=O)c2)O[C@H](CO)[C@H](O)[C@@H]1O [Compound 48, 2’-(((2S,3R,4R,5R,6R)-3-Acetamido-4,5-dihydroxy-6 (hydroxymethyl)tetrahydro-2H-pyran-2-yl)oxy)-[1,1’-biphenyl]-3-carboxamide]
IC50: 1600 nM

CC(=O)N[C@H]1[C@H](Oc2cccc(C(=O)O)c2-c2cccc(NS(C)(=O)=O)c2)O[C@H](CO)[C@H](O)[C@@H]1O [Compound 82, 6-(((2S,3S,4R,5R)-3-Acetamido-4,5-dihydroxy-6 (hydroxymethyl)tetrahydro-2H-pyran-2-yl)oxy)-3 ‘-(methylsulfona-mido)-[1,1’-biphenyl]-2-carboxylic Acid]
IC50: 66 nM

CC(=O)N[C@H]1[C@H](Oc2ccccc2-c2cccc(NS(C)(=O)=O)c2)O[C@H](CO)[C@H](O)[C@@H]1O [Compound 50, N-((2S,3R,4R,5R,6R)-4,5-Dihydroxy-6-(hydroxymethyl)-2-((3’- (methylsulfonamido)-[1,1’-biphenyl]-2-yl)oxy)tetrahydro-2H-pyran-3-yl)acetamide]
fold greater potency / improvement in activity relative to 1 (ELISA IC50 ratio): 3 fold | fold more potent than the matched pair Gal/GalNAc derivative (ELISA IC50 ratio): about 5 fold | IC50: 230 nM

CC(=O)N[C@H]1[C@H](Oc2ccc3ccccc3c2-c2cccc(NS(C)(=O)=O)c2)O[C@H](CO)[C@H](O)[C@@H]1O [Compound 85, N-((2S,3R,4R,5R,6R)-4,5-Dihydroxy-6-(hydroxymethyl)-2-((1-(3 (methylsulfonamido)phenyl)naphthalen-2-yl)oxy)tetrahydro-2H-pyran-3-yl)acetamide]
IC50: 81 nM

CC(=O)N[C@H]1[C@H](Oc2ccccc2-c2cccc(O)c2)O[C@H](CO)[C@H](O)[C@@H]1O [Compound 32, N-((2S,3R,4R,5R,6R)-4,5-Dihydroxy-2-((3’-hydroxy-[1,1’ biphenyl]-2-yl)oxy)-6-(hydroxymethyl)tetrahydro-2H-pyran-3-yl)-acetamide]
IC50: 700 nM

Cc1cccc(O[C@@H]2O[C@H](CO)[C@H](O)[C@H](O)[C@H]2NS(C)(=O)=O)c1-c1cccc(NS(C)(=O)=O)c1 [Compound 89, N-((2S,3R,4R,5R,6R)-4,5-Dihydroxy-6-(hydroxymethyl)-2-((6-methyl-3’-(methylsulfonamido)-[1,1’-biphenyl]-2-yl)oxy)-tetrahydro-2H-pyran-3-yl)methanesulfonamide]
IC50: 3500 nM

COc1cccc(-c2ccccc2O[C@@H]2O[C@H](CO)[C@H](O)[C@H](O)[C@H]2NC(C)=O)c1 [Compound 37, N-((2S,3R,4R,5R,6R)-4,5-Dihydroxy-6-(hydroxymethyl)-2-((3’-me-thoxy-[1,1’-biphenyl]-2-yl)oxy)tetrahydro-2H-pyran-3-yl)-acetamide]
IC50: 2000 nM
